Measured values as given in patent publication US20230085307A1, “PYRIDAZINONE COMPOUND AND HERBICIDE” (NISSAN CHEMICAL CORPORATION, priority 2019, published 2023).

Key:
late watergrass = assay: Test Example 2: herbicidal activity, application during weed generation under submerged conditions (Table 17, symbol A); type: in vivo, late watergrass (Echinochloa oryzicola); conditions: AAH 320 g/ha; application during weed generation, submerged conditions
Summary of the method: (§1)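 Effect on each weed is rated three weeks post-treatment, using the same scoring criteria as the preceding test. Plants grow from mixed-sown seed in flooded alluvial soil (4 cm water) at 25° C. to 30° C., and are treated at one to two leaves with diluted emulsion dropped onto the water.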

Japanese bulrush = assay: Test Example 2: herbicidal activity, application during weed generation under submerged conditions (Table 17, symbol B); type: in vivo, Japanese bulrush (Schoenoplectus juncoides); conditions: AAH 320 g/ha; application during weed generation, submerged conditions
Summary of the method: as §1

oval-leafed pondweed = assay: Test Example 2: herbicidal activity, application during weed generation under submerged conditions (Table 17, symbol C); type: in vivo, oval-leafed pondweed (Monochoria vaginalis); conditions: AAH 320 g/ha; application during weed generation, submerged conditions
Summary of the method: as §1

barnyard grass [1] = assay: Test Example 3: herbicidal effect by foliage application, Wagner pot (Table 18, symbol H); type: in vivo, barnyard grass (Echinochloa crus-galli); conditions: 320 g/ha
Summary of the method: (§2)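 Plants were sown in alluvial soil held under 0.1–0.5 cm standing water and grown 14 days in a greenhouse at 25–30 °C. An emulsifiable formulation, water-diluted to the set dose, was then sprayed onto the foliage, and effects were scored three weeks later using previously defined criteria.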

Chinese sprangletop = assay: Test Example 3: herbicidal effect by foliage application, Wagner pot (Table 18, symbol D); type: in vivo, chinese sprangletop (Leptochloa chinensis); conditions: 320 g/ha
Summary of the method: as §2

rice flat sedge = assay: Test Example 3: herbicidal effect by foliage application, Wagner pot (Table 18, symbol E); type: in vivo, rice flat sedge (Cyperus iria); conditions: 320 g/ha
Summary of the method: as §2

southern crabgrass [2] = assay: Test Example 4: herbicidal effect by soil treatment (Table 19, symbol F); type: in vivo, southern crabgrass (Digitaria ciliaris); conditions: amount of applied herbicide 320 g/ha
Summary of the method: (§3)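 Step 1: sow seeds in sterilized diluvial soil, cover ~1.5 cm. Step 2: spray diluted emulsion onto soil surface at predetermined rate. Step 3: greenhouse, 25–30° C, three weeks. Step 4: grade effect on each plant by earlier criteria.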

green foxtail [3] = assay: Test Example 4: herbicidal effect by soil treatment (Table 19, symbol G); type: in vivo, green foxtail (Setaria viridis); conditions: amount of applied herbicide 320 g/ha
Summary of the method: as §3

barnyard grass [4] = assay: Test Example 4: herbicidal effect by soil treatment (Table 19, symbol H); type: in vivo, barnyard grass (Echinochloa crus-galli); conditions: amount of applied herbicide 320 g/ha
Summary of the method: as §3

wild oat [5] = assay: Test Example 4: herbicidal effect by soil treatment (Table 19, symbol I); type: in vivo, wild oat (Avena fatua); conditions: amount of applied herbicide 320 g/ha
Summary of the method: as §3

blackgrass [6] = assay: Test Example 4: herbicidal effect by soil treatment (Table 19, symbol J); type: in vivo, blackgrass (Alopecurus myosuroides); conditions: amount of applied herbicide 320 g/ha
Summary of the method: as §3

Italian ryegrass [7] = assay: Test Example 4: herbicidal effect by soil treatment (Table 19, symbol K); type: in vivo, Italian ryegrass (Lolium multiflorum); conditions: amount of applied herbicide 320 g/ha
Summary of the method: as §3

windgrass [8] = assay: Test Example 4: herbicidal effect by soil treatment (Table 19, symbol L); type: in vivo, windgrass (Apera spica-venti); conditions: amount of applied herbicide 320 g/ha
Summary of the method: as §3

velvetleaf [9] = assay: Test Example 4: herbicidal effect by soil treatment (Table 19, symbol M); type: in vivo, velvetleaf (Abutilon theophrasti); conditions: amount of applied herbicide 320 g/ha
Summary of the method: as §3

redroot pigweed [10] = assay: Test Example 4: herbicidal effect by soil treatment (Table 19, symbol N); type: in vivo, redroot pigweed (Amaranthus retroflexus); conditions: amount of applied herbicide 320 g/ha
Summary of the method: as §3

lambsquarters [11] = assay: Test Example 4: herbicidal effect by soil treatment (Table 19, symbol O); type: in vivo, lambsquarters (Chenopodium album); conditions: amount of applied herbicide 320 g/ha
Summary of the method: as §3

chickweed [12] = assay: Test Example 4: herbicidal effect by soil treatment (Table 19, symbol P); type: in vivo, common chickweed (Stellaria media); conditions: amount of applied herbicide 320 g/ha
Summary of the method: as §3

persian speedwell [13] = assay: Test Example 4: herbicidal effect by soil treatment (Table 19, symbol R); type: in vivo, Persian speedwell (Veronica persica); conditions: amount of applied herbicide 320 g/ha
Summary of the method: as §3

southern crabgrass [14] = assay: Test Example 5: herbicidal effect by foliage application, plastic box (Table 20, symbol F); type: in vivo, southern crabgrass (Digitaria ciliaris); conditions: amount of applied herbicide 320 g/ha; foliage application after 14-day growth; evaluated three weeks after application
Summary of the method: (§4)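 Foliar spray test: emulsion formulation diluted in water to a set application rate, sprayed onto 14-day-old plants raised in diluvial soil at 25° C to 30° C under glass. Both herbicidal effect and crop effect rated visually three weeks later.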

green foxtail [15] = assay: Test Example 5: herbicidal effect by foliage application, plastic box (Table 20, symbol G); type: in vivo, green foxtail (Setaria viridis); conditions: amount of applied herbicide 320 g/ha; foliage application after 14-day growth; evaluated three weeks after application
Summary of the method: as §4

barnyard grass [16] = assay: Test Example 5: herbicidal effect by foliage application, plastic box (Table 20, symbol H); type: in vivo, barnyard grass (Echinochloa crus-galli); conditions: amount of applied herbicide 320 g/ha; foliage application after 14-day growth; evaluated three weeks after application
Summary of the method: as §4

wild oat [17] = assay: Test Example 5: herbicidal effect by foliage application, plastic box (Table 20, symbol I); type: in vivo, wild oat (Avena fatua); conditions: amount of applied herbicide 320 g/ha; foliage application after 14-day growth; evaluated three weeks after application
Summary of the method: as §4

blackgrass [18] = assay: Test Example 5: herbicidal effect by foliage application, plastic box (Table 20, symbol J); type: in vivo, blackgrass (Alopecurus myosuroides); conditions: amount of applied herbicide 320 g/ha; foliage application after 14-day growth; evaluated three weeks after application
Summary of the method: as §4

Italian ryegrass [19] = assay: Test Example 5: herbicidal effect by foliage application, plastic box (Table 20, symbol K); type: in vivo, Italian ryegrass (Lolium multiflorum); conditions: amount of applied herbicide 320 g/ha; foliage application after 14-day growth; evaluated three weeks after application
Summary of the method: as §4

windgrass [20] = assay: Test Example 5: herbicidal effect by foliage application, plastic box (Table 20, symbol L); type: in vivo, windgrass (Apera spica-venti); conditions: amount of applied herbicide 320 g/ha; foliage application after 14-day growth; evaluated three weeks after application
Summary of the method: as §4

velvetleaf [21] = assay: Test Example 5: herbicidal effect by foliage application, plastic box (Table 20, symbol M); type: in vivo, velvetleaf (Abutilon theophrasti); conditions: amount of applied herbicide 320 g/ha; foliage application after 14-day growth; evaluated three weeks after application
Summary of the method: as §4

redroot pigweed [22] = assay: Test Example 5: herbicidal effect by foliage application, plastic box (Table 20, symbol N); type: in vivo, redroot pigweed (Amaranthus retroflexus); conditions: amount of applied herbicide 320 g/ha; foliage application after 14-day growth; evaluated three weeks after application
Summary of the method: as §4

lambsquarters [23] = assay: Test Example 5: herbicidal effect by foliage application, plastic box (Table 20, symbol O); type: in vivo, lambsquarters (Chenopodium album); conditions: amount of applied herbicide 320 g/ha; foliage application after 14-day growth; evaluated three weeks after application
Summary of the method: as §4

chickweed [24] = assay: Test Example 5: herbicidal effect by foliage application, plastic box (Table 20, symbol P); type: in vivo, common chickweed (Stellaria media); conditions: amount of applied herbicide 320 g/ha; foliage application after 14-day growth; evaluated three weeks after application
Summary of the method: as §4

persian speedwell [25] = assay: Test Example 5: herbicidal effect by foliage application, plastic box (Table 20, symbol R); type: in vivo, Persian speedwell (Veronica persica); conditions: amount of applied herbicide 320 g/ha; foliage application after 14-day growth; evaluated three weeks after application
Summary of the method: as §4

Cc1nn(C)c(=O)c(-c2c(-c3ccc(F)cc3)sc3cc(Cl)c(Cl)cc23)c1O [5-039]
herbicidal effect rating, A: late watergrass (late watergrass): 3 (Herbicidal rate of 40% or more and less than 70%) | herbicidal effect rating, B: Japanese bulrush (Japanese bulrush): 0 (Herbicidal rate of 5% or less (almost no effect)) | herbicidal effect rating, C: oval-leafed pondweed (oval-leafed pondweed): 0 (Herbicidal rate of 5% or less (almost no effect)) | herbicidal effect on barnyard grass (H) (barnyard grass [1]): 4 (Herbicidal rate of 70% or more and less than 90%) | herbicidal effect on Chinese sprangletop (D) (Chinese sprangletop): 3 (Herbicidal rate of 40% or more and less than 70%) | herbicidal effect on rice flat sedge (E) (rice flat sedge): 5 (Herbicidal rate of 90% or more (almost completely withered)) | F: southern crabgrass, herbicidal effect grade (southern crabgrass [2]): 0 (Herbicidal rate of 5% or less (almost no effect)) | G: green foxtail, herbicidal effect grade (green foxtail [3]): 0 (Herbicidal rate of 5% or less (almost no effect)) | H: barnyard grass, herbicidal effect grade (barnyard grass [4]): 0 (Herbicidal rate of 5% or less (almost no effect)) | I: wild oat, herbicidal effect grade (wild oat [5]): 0 (Herbicidal rate of 5% or less (almost no effect)) | J: blackgrass, herbicidal effect grade (blackgrass [6]): 0 (Herbicidal rate of 5% or less (almost no effect)) | K: Italian ryegrass, herbicidal effect grade (Italian ryegrass [7]): 0 (Herbicidal rate of 5% or less (almost no effect)) | L: windgrass, herbicidal effect grade (windgrass [8]): 0 (Herbicidal rate of 5% or less (almost no effect)) | M: velvetleaf, herbicidal effect grade (velvetleaf [9]): 0 (Herbicidal rate of 5% or less (almost no effect)) | N: redroot pigweed, herbicidal effect grade (redroot pigweed [10]): 3 (Herbicidal rate of 40% or more and less than 70%) | O: lambsquarters, herbicidal effect grade (lambsquarters [11]): 1 (Herbicidal rate of 5% or more and less than 20%) | P: chickweed, herbicidal effect grade (chickweed [12]): 0 (Herbicidal rate of 5% or less (almost no effect)) | R: persian speedwell, herbicidal effect grade (persian speedwell [13]): 0 (Herbicidal rate of 5% or less (almost no effect)) | Herbicidal effect by foliage application, F: southern crabgrass (southern crabgrass [14]): 4 (Herbicidal rate of 70% or more and less than 90%) | Herbicidal effect by foliage application, G: green foxtail (green foxtail [15]): 5 (Herbicidal rate of 90% or more (almost completely withered)) | Herbicidal effect by foliage application, H: barnyard grass (barnyard grass [16]): 4 (Herbicidal rate of 70% or more and less than 90%) | Herbicidal effect by foliage application, I: wild oat (wild oat [17]): 5 (Herbicidal rate of 90% or more (almost completely withered)) | Herbicidal effect by foliage application, J: blackgrass (blackgrass [18]): 4 (Herbicidal rate of 70% or more and less than 90%) | Herbicidal effect by foliage application, K: Italian ryegrass (Italian ryegrass [19]): 4 (Herbicidal rate of 70% or more and less than 90%) | Herbicidal effect by foliage application, L: windgrass (windgrass [20]): 5 (Herbicidal rate of 90% or more (almost completely withered)) | Herbicidal effect by foliage application, M: velvetleaf (velvetleaf [21]): 3 (Herbicidal rate of 40% or more and less than 70%) | Herbicidal effect by foliage application, N: redroot pigweed (redroot pigweed [22]): 5 (Herbicidal rate of 90% or more (almost completely withered)) | Herbicidal effect by foliage application, O: lambsquarters (lambsquarters [23]): 5 (Herbicidal rate of 90% or more (almost completely withered)) | Herbicidal effect by foliage application, P: chickweed (chickweed [24]): 5 (Herbicidal rate of 90% or more (almost completely withered)) | Herbicidal effect by foliage application, R: persian speedwell (persian speedwell [25]): 4 (Herbicidal rate of 70% or more and less than 90%)
